Results published in PubChem BioAssay (NCI).
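The compound was tested at five concentrations on cells cultured in 96-well plates, with a 48-hour exposure period. Definition used: TGI = concentration required for complete inhibition of growth.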

What was measured:
Assay in all cases: NCI-60 cell line screen, 48 h
[1] = tested on: MOLT-4 leukemia
[2] = tested on: OVCAR-4 ovarian
[3] = tested on: UACC-257 melanoma
[4] = tested on: NCI-H23 lung
[5] = tested on: CAKI-1 renal
[6] = tested on: SK-MEL-5 melanoma
[7] = tested on: UO-31 renal
[8] = tested on: SNB-19 CNS
[9] = tested on: OVCAR-3 ovarian
[10] = tested on: A498 renal

## CC(C)=CCc1c(O)c(CC=C(C)C)c2oc3c(c(=O)c2c1O)C(C=C(C)C)Oc1cc(O)ccc1-3 (stereo not given)
[1]
  TGI: 16.6 µM
[2]
  TGI: 23.3 µM
[3]
  TGI: 26.9 µM
[4]
  TGI: 16.2 µM
[5]
  TGI: 19.4 µM
[6]
  TGI: 21.5 µM
[7]
  TGI: 15.7 µM
[8]
  TGI: 24.2 µM
[9]
  TGI: 14.8 µM
[10]
  TGI: 29.8 µM

## [N-]=[N+]=NC1=C(N=[N+]=[N-])c2cccc3cccc(c23)C1=O
[1]
  TGI: > 100 µM
[2]
  TGI: > 100 µM
[3]
  TGI: > 100 µM
[4]
  TGI: > 100 µM
[5]
  TGI: > 100 µM
[6]
  TGI: > 100 µM
[7]
  TGI: > 100 µM
[8]
  TGI: > 100 µM
[9]
  TGI: > 100 µM
[10]
  TGI: > 100 µM

## c1cc(-c2ccc(Oc3ccc(-c4ccncc4)cc3)cc2)ccn1
[1]
  TGI: 41.5 µM
[2]
  TGI: > 100 µM
[3]
  TGI: > 68.3 µM
[4]
  TGI: > 34 µM
[5]
  TGI: > 27.1 µM
[6]
  TGI: 5.52 µM
[7]
  TGI: > 100 µM
[8]
  TGI: > 100 µM
[9]
  TGI: > 61.8 µM
[10]
  TGI: > 69.7 µM

## O=Cc1cc(O)ccc1Br
[1]
  TGI: 43.8 µM
[2]
  TGI: > 65.7 µM
[3]
  TGI: > 91.1 µM
[4]
  TGI: 71 µM
[5]
  TGI: 48.1 µM
[6]
  TGI: 98.2 µM
[7]
  TGI: > 81 µM
[8]
  TGI: > 100 µM
[9]
  TGI: > 91.8 µM
[10]
  TGI: > 100 µM

## COc1ccc(OC)c(CC(=O)c2ccc(O)c(C(=O)NCCc3ccc(F)cc3)c2)c1
[1]
  TGI: 17.4 µM
[2]
  TGI: 31 µM
[3]
  TGI: 44.8 µM
[4]
  TGI: 14.2 µM
[5]
  TGI: 14.5 µM
[6]
  TGI: 11.4 µM
[7]
  TGI: 23.4 µM
[8]
  TGI: 52.5 µM
[9]
  TGI: 3.17 µM
[10]
  TGI: 47 µM

## NC(N)=NCCCS(=O)(=O)Nc1ccc(Nc2c3ccccc3nc3cc([N+](=O)[O-])ccc23)cc1
[1]
  TGI: 43.6 µM
[2]
  TGI: 48.9 µM
[3]
  TGI: 68.1 µM
[4]
  TGI: 35.6 µM
[5]
  TGI: > 93.5 µM
[6]
  TGI: 45.3 µM
[7]
  TGI: > 100 µM
[8]
  TGI: 28.8 µM
[9]
  TGI: 66.4 µM
[10]
  TGI: 65.8 µM

## Brc1ccc(C2(N3CCCCC3)CCCCC2)s1
[1]
  TGI: 34.2 µM
[2]
  TGI: > 100 µM
[3]
  TGI: 94.6 µM
[4]
  TGI: > 100 µM
[5]
  TGI: > 100 µM
[6]
  TGI: 22.3 µM
[7]
  TGI: > 100 µM
[8]
  TGI: > 100 µM
[9]
  TGI: > 100 µM
[10]
  TGI: > 100 µM

## Nc1nc(SCC(=O)c2ccccc2)nc2nc3c(c(-c4ccccc4)c12)CCCC3
[1]
  TGI: > 100 µM
[2]
  TGI: 66.4 µM
[3]
  TGI: > 100 µM
[4]
  TGI: > 100 µM
[5]
  TGI: > 100 µM
[6]
  TGI: > 100 µM
[7]
  TGI: > 100 µM
[8]
  TGI: > 100 µM
[9]
  TGI: 94.5 µM
[10]
  TGI: 42.9 µM

## COc1cc(O)c2c(=O)cc(C3(OC(C)=O)C=CC(OC4OC(CO)C(O)C(O)C4O)C=C3)oc2c1 (stereo not given)
[1]
  TGI: > 100 µM
[2]
  TGI: > 100 µM
[3]
  TGI: > 100 µM
[4]
  TGI: > 100 µM
[5]
  TGI: > 100 µM
[6]
  TGI: > 100 µM
[7]
  TGI: > 100 µM
[8]
  TGI: > 100 µM
[9]
  TGI: > 100 µM
[10]
  TGI: > 100 µM

## CCC1c2[nH]c3ccccc3c2C[C@H]2C(=O)NC(Cc3ccccc3)C(=O)N12 (stereo not given in full)
[1]
  TGI: 56.9 µM
[2]
  TGI: > 100 µM
[3]
  TGI: 49.6 µM
[4]
  TGI: > 100 µM
[5]
  TGI: 98.8 µM
[6]
  TGI: 35.5 µM
[7]
  TGI: > 100 µM
[8]
  TGI: > 100 µM
[9]
  TGI: 94.2 µM
[10]
  TGI: > 100 µM
